Measurements: ChEMBL document CHEMBL1914445 (Eur J Med Chem, 2011)

Experiments:
[1] = biological target: T1, Acetylcholinesterase (Homo sapiens, UniProt P22303); assay: Inhibition of human recombinant AChE using acetylthiocholine as substrate by Ellman's assay in presence of bovine serum albumin
[2] = biological target: T2, Acetylcholinesterase (Electrophorus electricus, UniProt O42275)
Description: Inhibition of Electrophorus electricus AChE using acetylthiocholine iodide as substrate preincubated for 10 mins before substrate addition by Ellman's method in presence of bovine serum albumin

[3] = biological target: T3, Cholinesterase (Homo sapiens, UniProt P06276); assay: Inhibition of human serum BuChE using butyrylthiocholine as substrate by Ellman's assay in presence of bovine serum albumin
[4] = biological target: T4, Cholinesterase (Equus caballus, UniProt P81908)
Description: Inhibition of equine serum BuChE using butyrylthiocholine iodide as substrate preincubated for 10 mins before substrate addition by Ellman's method in presence of bovine serum albumin

[5] = biological target: T4, Cholinesterase; assay: Inhibition of equine serum BuChE using butyrylthiocholine iodide as substrate preincubated for 10 mins before substrate addition by Ellman's method
[6] = biological target: T3, Cholinesterase; assay: Inhibition of human serum BuChE using butyrylthiocholine as substrate by Ellman's assay
[7] = biological target: T1, Acetylcholinesterase; assay: Inhibition of human recombinant AChE using acetylthiocholine as substrate by Ellman's assay
[8] = biological target: T2, Acetylcholinesterase; remark: listed apart in the source
Description: Inhibition of Electrophorus electricus AChE using acetylthiocholine iodide as substrate preincubated for 10 mins before substrate addition by Ellman's method

[9] = biological target: T2, Acetylcholinesterase; assay: Mixed-type inhibition of Electrophorus electricus AChE assessed as hydrolysis of acetylthiocholine by Lineweaver-Burk plot analysis
[10] = system: SH-SY5Y; assay: Neuroprotective activity against amyloid beta(25-32)-induced toxicity in human SH-SY5Y cells assessed as reduction in cell viability at 1 uM preincubated for 24 hrs measured after 24 hrs by MTT assay; type: functional
[11] = system: SH-SY5Y; assay: Neuroprotective activity against amyloid beta(25-32)-induced toxicity in human SH-SY5Y cells assessed as reduction in cell viability at 0.3 uM preincubated for 24 hrs measured after 24 hrs by MTT assay; type: functional
[12] = species: Homo sapiens; assay: Selectivity ratio of IC50 for human […]
[13] = system: SH-SY5Y; assay: Neuroprotective activity against amyloid beta(25-32)-induced toxicity in human SH-SY5Y cells assessed as reduction in cell viability at 3 uM preincubated for 24 hrs measured after 24 hrs by MTT assay; type: functional

T3 sequence (P06276 whole entry): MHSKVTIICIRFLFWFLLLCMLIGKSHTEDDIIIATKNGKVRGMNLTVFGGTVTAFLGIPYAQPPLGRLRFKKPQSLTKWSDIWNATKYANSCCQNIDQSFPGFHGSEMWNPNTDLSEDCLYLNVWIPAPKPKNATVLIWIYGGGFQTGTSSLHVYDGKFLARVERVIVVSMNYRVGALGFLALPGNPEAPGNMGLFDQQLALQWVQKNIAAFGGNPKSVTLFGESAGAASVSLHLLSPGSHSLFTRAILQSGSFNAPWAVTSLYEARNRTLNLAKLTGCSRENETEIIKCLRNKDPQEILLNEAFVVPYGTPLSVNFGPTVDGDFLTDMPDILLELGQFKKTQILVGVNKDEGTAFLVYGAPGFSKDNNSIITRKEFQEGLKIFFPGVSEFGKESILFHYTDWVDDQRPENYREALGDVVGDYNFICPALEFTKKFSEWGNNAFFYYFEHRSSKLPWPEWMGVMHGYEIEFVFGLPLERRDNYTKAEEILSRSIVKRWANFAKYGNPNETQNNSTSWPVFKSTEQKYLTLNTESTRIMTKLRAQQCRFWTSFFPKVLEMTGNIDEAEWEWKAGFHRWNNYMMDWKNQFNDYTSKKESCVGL
T4 sequence (P81908 whole entry): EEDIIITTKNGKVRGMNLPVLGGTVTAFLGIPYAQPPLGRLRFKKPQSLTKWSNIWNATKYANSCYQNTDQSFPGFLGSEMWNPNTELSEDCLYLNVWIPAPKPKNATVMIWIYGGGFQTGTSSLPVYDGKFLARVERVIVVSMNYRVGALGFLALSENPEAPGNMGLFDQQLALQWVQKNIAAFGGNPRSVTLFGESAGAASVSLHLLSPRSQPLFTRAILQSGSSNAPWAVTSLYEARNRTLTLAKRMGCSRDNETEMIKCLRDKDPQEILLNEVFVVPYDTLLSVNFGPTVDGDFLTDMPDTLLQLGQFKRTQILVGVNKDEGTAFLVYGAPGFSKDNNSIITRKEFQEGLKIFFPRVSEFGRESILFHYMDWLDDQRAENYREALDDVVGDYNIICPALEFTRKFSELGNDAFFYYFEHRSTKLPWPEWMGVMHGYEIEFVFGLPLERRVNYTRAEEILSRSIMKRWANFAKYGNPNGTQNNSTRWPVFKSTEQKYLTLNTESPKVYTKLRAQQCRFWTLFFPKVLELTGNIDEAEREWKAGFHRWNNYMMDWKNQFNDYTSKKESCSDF
T2 sequence (O42275 whole entry): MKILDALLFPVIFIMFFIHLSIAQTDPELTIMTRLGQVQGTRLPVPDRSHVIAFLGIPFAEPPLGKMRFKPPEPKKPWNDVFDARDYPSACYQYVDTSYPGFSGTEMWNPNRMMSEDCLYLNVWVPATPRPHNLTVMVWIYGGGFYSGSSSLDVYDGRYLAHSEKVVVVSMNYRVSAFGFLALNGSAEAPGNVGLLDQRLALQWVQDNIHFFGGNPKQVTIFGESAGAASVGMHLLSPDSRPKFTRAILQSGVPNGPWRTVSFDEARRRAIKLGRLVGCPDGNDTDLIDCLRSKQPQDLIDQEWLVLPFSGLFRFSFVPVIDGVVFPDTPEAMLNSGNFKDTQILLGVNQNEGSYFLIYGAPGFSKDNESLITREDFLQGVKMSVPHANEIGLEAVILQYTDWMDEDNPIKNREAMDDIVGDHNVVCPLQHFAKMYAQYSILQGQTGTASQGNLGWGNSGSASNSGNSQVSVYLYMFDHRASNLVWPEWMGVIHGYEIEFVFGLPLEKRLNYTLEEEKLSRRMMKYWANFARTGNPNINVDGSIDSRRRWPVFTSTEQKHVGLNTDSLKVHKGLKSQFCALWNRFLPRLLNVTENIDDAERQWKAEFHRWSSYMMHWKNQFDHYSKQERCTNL
T1 sequence (P22303 whole entry): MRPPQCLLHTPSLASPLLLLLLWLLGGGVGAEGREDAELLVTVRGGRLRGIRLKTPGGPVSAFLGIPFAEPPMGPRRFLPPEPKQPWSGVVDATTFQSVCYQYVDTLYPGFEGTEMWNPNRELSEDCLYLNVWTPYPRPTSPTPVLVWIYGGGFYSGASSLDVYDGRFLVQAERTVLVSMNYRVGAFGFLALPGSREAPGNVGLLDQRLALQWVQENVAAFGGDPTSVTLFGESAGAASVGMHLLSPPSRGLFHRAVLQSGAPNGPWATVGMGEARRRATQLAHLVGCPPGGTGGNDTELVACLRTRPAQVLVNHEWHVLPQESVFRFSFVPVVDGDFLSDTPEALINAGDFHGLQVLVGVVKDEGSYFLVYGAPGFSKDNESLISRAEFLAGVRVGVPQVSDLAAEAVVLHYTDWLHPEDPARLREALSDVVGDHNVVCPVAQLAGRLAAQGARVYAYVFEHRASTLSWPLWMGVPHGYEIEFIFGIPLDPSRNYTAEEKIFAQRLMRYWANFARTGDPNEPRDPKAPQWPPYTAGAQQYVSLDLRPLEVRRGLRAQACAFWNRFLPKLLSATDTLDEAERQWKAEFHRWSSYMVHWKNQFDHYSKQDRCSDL

Structure (SMILES) | IC50 [2] [µM] | IC50 [4] [µM] | IC50 [5] [µM] | IC50 [6] [µM] | IC50 [7] [µM] | IC50 [8] [µM] | also measured
N#Cc1c(-c2ccc(Cl)cc2)oc2nc3c(c(N)c12)CCCC3 | > 100 | 32.4 | – | – | – | – | IC50 [1]: > 100 µM; IC50 [3]: > 100 µM
Nc1c2c(nc3c1cc(-c1ccc(Cl)cc1)n3-c1ccccc1)CCCC2 | 24 | 15 | – | – | – | – | –
Nc1c2c(nc3oc(-c4ccccc4)cc13)CCCC2 | – | – | 3.6 | 3.78 | > 100 | > 100 | –
Nc1c2c(nc3oc(-c4ccccc4)cc13)CCCCC2 | – | – | 6 | – | – | > 100 | –
Cc1ccc(-c2cc3c(N)c4c(nc3o2)CCCC4)cc1 | – | – | 2.9 | 119 | > 100 | > 100 | –
Nc1c2c(nc3oc(-c4ccc(Cl)cc4)cc13)CCCCC2 | > 100 | 43 | – | – | – | – | –
Nc1c2c(nc3c1cc(-c1ccccc1)n3-c1ccccc1)CCCC2 | – | – | 0.074 | 8.57 | 45.5 | 0.61 | Ki [9]: 621 nM; Activity [10]: 19%; Activity [11]: 11.4%; Ratio IC50 [12]: 5; Activity [13]: 23.7%
Cc1ccc(-c2cc3c(N)c4c(nc3o2)CCCCC4)cc1 | > 30 | 13 | – | – | – | – | –
Nc1c2c(nc3c1cc(-c1ccccc1)n3-c1ccccc1)CCCCC2 | > 30 | 1.1 | – | – | – | – | –
Nc1c2c(nc3oc(-c4ccc(Cl)cc4)cc13)CCCC2 | – | – | 23 | 26.1 | > 100 | > 100 | –
